The source of these data is ChEMBL document CHEMBL1221301, “SAR studies of non-zinc-chelating MMP-13 inhibitors: improving selectivity and metabolic stability” (Bioorg Med Chem Lett, 2010).

The target of one series is Collagenase 3 (Homo sapiens, UniProt P45452).
The nature of series [1]: Selectivity ratio of IC50 for MMP3 to IC50 for MMP13.
A short description of series [2]: Selectivity ratio of IC50 for MMP10 to IC50 for MMP13.
Series [3] is described as follows: Selectivity ratio of IC50 for MMP2 to IC50 for MMP13.
Series [4] can be described thus: Selectivity ratio of IC50 for MMP8 to IC50 for MMP13.
The subject of a further series is Liver microsomes. In words: Metabolic stability in human liver microsomes. Format: ADME, Microsome. On the technique in general: Microsomes from liver hold many membrane-bound enzymes, among them those of drug oxidation.
Series [5] can be described thus: Half life in rat at 1 mg/kg, iv. The class given is ADME, organism-based. Further details: dose 1 mg/kg, route intravenous. Conditions: in vivo.
Series [6] in a line: Volume of distribution at steady state in rat at 1 mg/kg, iv. More on the design: dose 1 mg/kg, route intravenous. Conditions: in vivo, read-out: Vdss. The class given is ADME, organism-based.
Another series deals with Rattus norvegicus. In words: Clearance in rat as % of liver blood flow at 1 mg/kg, iv. Format: ADME, organism-based. More on the design: dose 1 mg/kg, route intravenous. The following applies: in vivo.
Series [7] is described as follows: Aqueous solubility of the compound at pH 7.4. Conditions: aqueous medium. The class given is physicochemical.
Series [8] is described as follows: Aqueous solubility of the compound at pH 4.5. The class given is physicochemical. The following applies: aqueous medium.

Turning to `CNC(=O)[C@H](NC(=O)c1ccc(-c2cccc(CNC(=O)c3ccccn3)c2)o1)C1CCCCC1`, the midpoint of inhibition on Collagenase 3, the IC50, lay at 8 nM. The Ratio IC50 in series [1] was 200; in series [2] it was 65; in [3], more than 2400; in series [4], more than 2400.
For `CNC(=O)[C@@H](NC(=O)c1ccc(-c2cccc(CNC(=O)c3ccnc(C(F)(F)F)n3)c2)o1)C(C)C`, inhibition on Collagenase 3 was half-maximal at 9 nM (IC50). Further, the Ratio IC50 in series [1] is 200; in [2], 50; in series [3] it was 850; in series [4], more than 2100. Also, in the series with Liver microsomes, the Stability stood at 70%.
For the compound `CNC(=O)[C@H](NC(=O)c1ccc(-c2cccc(CNC(C)=O)c2)o1)C1CCCCC1`, the IC50 (as a rule, the point on the concentration scale where inhibition reaches its midpoint) at Collagenase 3 is 3300 nM. Besides, the Ratio IC50 was 3 in [1], 0.5 in series [2], 5 in series [3] and more than 7 in series [4].
The corresponding values for `CNC(=O)[C@H](NC(=O)c1ccc(-c2cccc(CNC(=O)c3cn4cccc(C)c4n3)c2)o1)C1CCCCC1` are 110 nM, more than 45, 29, more than 45 and more than 45.
For `CNC(=O)[C@H](NC(=O)c1ccc(-c2cccc(CNC(=O)c3cc(C)n(C)n3)c2)o1)C1CCCCC1`, in that order: 72 nM, 51, 19, more than 280 and more than 280.
For `CNC(=O)[C@H](NC(=O)c1ccc(-c2cccc(CNC(=O)c3ncccc3C)c2)o1)C1CCCCC1`, in that order: 100 nM, 85, 31, more than 200 and more than 200.
In turn, `CNC(=O)[C@H](NC(=O)c1ccc(-c2cccc(CNC(=O)c3cccc(C(F)(F)F)n3)c2)o1)C1CCCCC1` gave an IC50 against Collagenase 3 of 9 nM. In addition, the Ratio IC50 in series [1], in [2], in series [3] and in series [4] was more than 2300 each time. Also, the Stability with Liver microsomes was determined as 81%.
On Collagenase 3, `CCc1cncc(C(=O)NCc2cccc(-c3ccc(C(=O)N[C@@H](C(=O)NC)C4CCCCC4)o3)c2)c1` yielded an IC50 of 29 nM. Moreover, the Ratio IC50 is more than 170 in series [1], 45 in [2], more than 170 in series [3] and more than 170 in series [4].
Compound `CNC(=O)[C@@H](NC(=O)c1ccc(-c2cccc(CNC(=O)c3cccc(C(F)(F)F)n3)c2)o1)C1CC1` registered a Stability in the series on Liver microsomes of 60%.
As to `CNC(=O)[C@@H](NC(=O)c1ccc(-c2cccc(CNC(=O)c3cccc(C(F)(F)F)n3)c2)o1)C(C)(C)O`, the IC50 against Collagenase 3 is 25 nM. In addition, the Ratio IC50 was more than 400 in series [1], 440 in [2], more than 770 in series [3] and more than 810 in series [4]. The Stability with Liver microsomes was 62%.
With `CNC(=O)[C@H](NC(=O)c1ccc(-c2cccc(CNC(=O)c3ccnc(Cl)n3)c2)o1)C1CCCCC1`, the IC50 on Collagenase 3 came to 3 nM. The results for the Ratio IC50 in [2], in series [3] and in series [4] were 27, 590 and more than 7100, respectively.
`CNC(=O)[C@@H](NC(=O)c1ccc(-c2cccc(CNC(=O)c3ccnc(C(F)(F)F)n3)c2)o1)C1CCOCC1`: the Ratio IC50 was 250 in series [1], 100 in [2], 640 in series [3] and more than 11000 in series [4]. In the series on Liver microsomes, this compound returned a Stability of 24%.
`CNC(=O)[C@@H](NC(=O)c1ccc(-c2cccc(CNC(=O)c3ccnc(C(F)(F)F)n3)c2)o1)C1CC1`: on Collagenase 3, the midpoint of inhibition, the IC50, lay at 36 nM. In addition, the Ratio IC50 is 540 in [1], 170 in series [2], 580 in [3] and more than 560 in series [4]. Further, the half-life (commonly the time in which the quantity being followed falls by half) in series [5] was 42 min. This compound also came in with a Stability in the series on Liver microsomes of 69%. The Vd in series [6] was 1.2 L/kg. The “Fraction of Liver Blood Flow” value in the series on Rattus norvegicus was 47%.
In turn, `CNC(=O)[C@H](NC(=O)c1ccc(-c2cccc(CNC(=O)c3cccnc3)c2)o1)C1CCCCC1` returned an IC50 against Collagenase 3 of 42 nM. For the same compound, the Ratio IC50 in [2] was 7; in series [3], more than 480; in series [4], 48.
`CNC(=O)[C@@H](NC(=O)c1ccc(-c2cccc(CNC(=O)c3cccc(C(F)(F)F)n3)c2)o1)C1CCOCC1`: the Ratio IC50 in series [1] stood at 330; in series [2], 130; in [3], 1500; in series [4], 7100. Moreover, the Stability in the series with Liver microsomes is listed as 83%.
For the compound `CNC(=O)[C@H](NC(=O)c1ccc(-c2cccc(CNC(=O)c3ccn(C)n3)c2)o1)C1CCCCC1`, on Collagenase 3, 24 nM corresponded to half-maximal inhibition (IC50). Further, the Ratio IC50 is 33 in [1], 14 in series [2], more than 430 in [3] and more than 820 in [4].
`CNC(=O)[C@H](NC(=O)c1ccc(-c2cccc(CNC(=O)c3ccncc3)c2)o1)C1CCCCC1`: on Collagenase 3, the concentration for half-maximal inhibition (IC50) worked out at 31 nM. The Ratio IC50 in [2] is 4; in series [3], 310; in [4], more than 660.
As to `CNC(=O)[C@H](NC(=O)c1ccc(-c2cccc(CNC(=O)c3cccc(C)n3)c2)o1)C1CCCCC1`, half-maximal inhibition on Collagenase 3 (IC50) was put at 4 nM. The Ratio IC50 in [1] was 240; in [2] it was 87; in series [3] it was more than 4900; in [4], more than 4900.
`CNC(=O)[C@H](NC(=O)c1ccc(-c2cccc(CNC(=O)c3ccco3)c2)o1)C1CCCCC1`: 75 nM corresponded to half-maximal inhibition on Collagenase 3 (IC50). For the same compound, the Ratio IC50 in series [1] was 15; in series [2] it was 6; in [3], more than 270; in series [4], more than 270.
The compound `CNC(=O)[C@@H](NC(=O)c1ccc(-c2cccc(CNC(=O)c3cccc(C(F)(F)F)n3)c2)o1)C(C)C` displayed an IC50 at Collagenase 3 of 6 nM. The Ratio IC50 in series [1] was 1000; in series [2] it was 260; in series [3] it was more than 3600; in series [4] it was more than 3600. For the same compound, in the series with Liver microsomes, the Stability stood at 88%.
`CNC(=O)[C@H](NC(=O)c1ccc(-c2cccc(CNC(=O)c3ccoc3C)c2)o1)C1CCCCC1` registered an IC50 at Collagenase 3 of 330 nM. In addition, the Ratio IC50 is 9 in series [1], 8 in series [2], more than 61 in series [3] and more than 61 in series [4].
The compound `CNC(=O)[C@H](NC(=O)c1ccc(-c2cccc(CNC(=O)c3occc3C)c2)o1)C1CCCCC1` came in with an IC50 on Collagenase 3 of 180 nM. Also, the Ratio IC50 was more than 110 in series [1], 17 in series [2], more than 110 in [3] and more than 110 in series [4].
On Collagenase 3, `CNC(=O)[C@H](NC(=O)c1ccc(-c2cccc(CNC(=O)c3ccnc(C(F)(F)F)n3)c2)o1)C1CCCCC1` registered a concentration for half-maximal inhibition (IC50) of 7 nM. For the same compound, the Ratio IC50 is more than 2800 in series [1], 370 in series [2], more than 2800 in [3] and more than 2800 in [4]. In the series on Liver microsomes, the Stability stood at 66%.
`CNC(=O)[C@H](NC(=O)c1ccc(-c2cccc(CNC(=O)c3ccncn3)c2)o1)C1CCCCC1` displayed an IC50 against Collagenase 3 of 10 nM. Moreover, the Ratio IC50 in series [2] is 9; in [3] it was 290; in series [4], more than 2000.
On to `CNC(=O)[C@@H](NC(=O)c1ccc(-c2cccc(CNC(=O)c3ccnc(C(F)(F)F)n3)c2)o1)C(C)(C)O`, for which the solubility in series [7] and in series [8] was more than 50 µg/mL each time. In series [5], this compound had a half-life of 57 min. Further, the Stability with Liver microsomes stood at 14%. Besides, the Vd in series [6] was 0.9 L/kg. Besides, the “Fraction of Liver Blood Flow” value with Rattus norvegicus is 26%.
At Collagenase 3, `CNC(=O)[C@H](NC(=O)c1ccc(-c2cccc(CNC(=O)c3csc(C)n3)c2)o1)C1CCCCC1` returned an IC50 of 8 nM. In addition, the Ratio IC50 in [2] was found to be 7; in series [3] it was 310; in series [4], 1800.
On to `CNC(=O)[C@H](NC(=O)c1ccc(-c2cccc(CNC(=O)c3cn4ccc(C)cc4n3)c2)o1)C1CCCCC1`, for which, on Collagenase 3, the IC50 came out at 140 nM. Besides, the Ratio IC50 in [1] is more than 37; in [2] it was 32; in series [3], more than 37; in [4], more than 37.
`CNC(=O)[C@H](NC(=O)c1ccc(-c2cccc(CNC(=O)c3nccn3C)c2)o1)C1CCCCC1`: it took 310 nM to reach half-maximal inhibition against Collagenase 3 (IC50). Also, the Ratio IC50 in series [1] is more than 64; in series [2], 9; in series [3] it was more than 64; in [4], more than 64.
